Data on 19 compounds can be found in US11814367B2, “Inhibitors of glycogen synthase 1 (GYS1) and methods of use thereof” (Maze Therapeutics, Inc., priority 2021, dated 2023).

In test [1] the target is hGYS1 enzyme (recombinant hGYS1/GN1 protein) (Homo sapiens (Human), UniProt P13807). Description: GYS1 coupled enzyme assay (PK/LDH). The test is classed as biochemical. The following applies: hGYS1/GN1 50 nM, UDP-Glucose 0.8 mM, G6P 1 mM; geometric mean of at least 2 runs.
The test system of test [2] is hGYS1 enzyme / glycogen synthesis in HeLa cells. The test can be described thus: GYS1 cell based assay (glycogen synthesis, Glucose-glo). On the set-up: species or system human. The following applies: Homo sapiens, 24 h incubation, 20 mM glucose, geometric mean of at least 2 runs. In outline: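 HeLa cells starved 24 h in medium containing only 1× Glutamax were plated onto compound in medium with 20 mM glucose (1% DMSO final) for 24 h, 37 °C, 5% CO2. Acid lysates were Tris-quenched, glucoamylase-digested (pH 5.3, 1 h, 37 °C) and read by Glucose-glo luminescence. IC50 came from Hill fits, as geometric mean of ≥2 runs.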

The target in test [3] is hGYS2 enzyme (recombinant hGYS2/GN1 protein) (Homo sapiens (Human), UniProt P54840). The test can be described thus: GYS2 coupled enzyme assay (PK/LDH). The test is classed as biochemical. As to conditions: geometric mean of at least 2 assay runs on separate days, read-out: Avg_IC50. The procedure, abridged:
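hGYS2/GN1 200 nM; UDP-Glc 2 mM; glycogen 0.2%; G6P 2 mM; PEP 2 mM, NADH 0.6 mM, PK/LDH 20 U/mL. 50 mM Tris pH 7.5, MgCl2, KCl, BSA, TCEP, 2.5% DMSO. Kinetic A340, 10 min. IC50 = geomean of ≥2 runs.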

Chain of hGYS2 enzyme (recombinant hGYS2/GN1 protein) (P54840 whole entry): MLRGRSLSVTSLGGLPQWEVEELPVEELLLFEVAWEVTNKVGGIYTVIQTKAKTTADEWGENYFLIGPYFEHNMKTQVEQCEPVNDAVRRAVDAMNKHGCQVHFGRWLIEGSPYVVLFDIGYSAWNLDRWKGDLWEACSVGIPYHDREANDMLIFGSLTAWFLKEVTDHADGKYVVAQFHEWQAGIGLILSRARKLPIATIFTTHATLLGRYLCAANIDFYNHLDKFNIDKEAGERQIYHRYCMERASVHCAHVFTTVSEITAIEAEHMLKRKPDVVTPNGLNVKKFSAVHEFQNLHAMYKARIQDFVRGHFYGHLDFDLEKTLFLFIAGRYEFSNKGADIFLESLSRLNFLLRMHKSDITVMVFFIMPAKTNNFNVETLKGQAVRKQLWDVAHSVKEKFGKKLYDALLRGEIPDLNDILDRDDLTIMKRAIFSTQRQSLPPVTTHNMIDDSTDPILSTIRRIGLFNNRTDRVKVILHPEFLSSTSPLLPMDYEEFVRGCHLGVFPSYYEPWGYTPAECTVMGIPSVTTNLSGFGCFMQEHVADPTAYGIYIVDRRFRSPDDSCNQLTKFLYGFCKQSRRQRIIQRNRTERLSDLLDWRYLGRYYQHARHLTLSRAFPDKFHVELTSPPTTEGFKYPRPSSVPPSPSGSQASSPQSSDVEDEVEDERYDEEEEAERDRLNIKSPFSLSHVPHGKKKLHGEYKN
Chain of hGYS2 enzyme (recombinant hGYS2/GN1 protein) (P46976 whole entry partner): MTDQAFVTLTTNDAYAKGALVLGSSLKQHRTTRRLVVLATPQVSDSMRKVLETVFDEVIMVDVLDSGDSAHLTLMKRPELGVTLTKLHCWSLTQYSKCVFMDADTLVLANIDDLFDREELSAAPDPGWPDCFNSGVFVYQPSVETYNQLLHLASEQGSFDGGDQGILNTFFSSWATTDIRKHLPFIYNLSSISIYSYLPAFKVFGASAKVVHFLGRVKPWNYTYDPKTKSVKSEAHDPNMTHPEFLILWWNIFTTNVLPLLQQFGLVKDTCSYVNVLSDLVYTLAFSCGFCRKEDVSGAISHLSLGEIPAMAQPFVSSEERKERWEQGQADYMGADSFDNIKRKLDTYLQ
Chain of hGYS1 enzyme (recombinant hGYS1/GN1 protein) (P13807 whole entry): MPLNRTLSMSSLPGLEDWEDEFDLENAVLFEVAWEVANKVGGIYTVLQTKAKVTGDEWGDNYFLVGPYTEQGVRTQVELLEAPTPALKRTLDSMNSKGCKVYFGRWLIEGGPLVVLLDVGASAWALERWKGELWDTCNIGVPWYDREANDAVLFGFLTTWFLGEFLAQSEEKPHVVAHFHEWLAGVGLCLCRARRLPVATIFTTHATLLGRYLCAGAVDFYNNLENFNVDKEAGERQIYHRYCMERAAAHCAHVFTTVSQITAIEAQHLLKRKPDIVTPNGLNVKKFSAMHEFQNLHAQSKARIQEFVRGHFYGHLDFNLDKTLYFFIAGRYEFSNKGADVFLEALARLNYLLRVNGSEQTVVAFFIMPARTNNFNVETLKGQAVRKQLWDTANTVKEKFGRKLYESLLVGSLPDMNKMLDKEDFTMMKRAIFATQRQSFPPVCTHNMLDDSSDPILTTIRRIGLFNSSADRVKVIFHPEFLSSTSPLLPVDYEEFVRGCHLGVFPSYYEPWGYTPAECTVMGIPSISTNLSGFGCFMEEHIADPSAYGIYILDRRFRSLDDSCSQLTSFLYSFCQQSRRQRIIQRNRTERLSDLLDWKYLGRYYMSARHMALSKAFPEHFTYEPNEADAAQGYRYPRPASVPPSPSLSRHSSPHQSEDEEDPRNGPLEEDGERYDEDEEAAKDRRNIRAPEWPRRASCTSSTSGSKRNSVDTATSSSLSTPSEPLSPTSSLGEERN
Chain of hGYS1 enzyme (recombinant hGYS1/GN1 protein) (P46976 whole entry partner): as the sequence (P46976 whole entry partner) above

With `Cc1nc2ccccc2n1CC(=O)N1C[C@H](F)C[C@H]1C(=O)N[C@@H](c1ccccc1)c1ccc(C2(C)CC2)c(F)n1` [Compound 593, (2S,4R)-4-fluoro-N-[(S)-[6-fluoro-5-(1-methylcyclopropyl)pyridin-2-yl](phenyl)methyl]-1-[2-(2-methyl-1H-1,3-benzodiazol-1-yl)acetyl]pyrrolidine-2-carboxamide], the IC50 is 19 nM in test [1]; 280 nM in test [2] (HeLa, 24 h); greater than 100000 nM in test [3].

As for `CC1(c2ccc([C@@H](NC(=O)[C@@H]3C[C@@H](F)CN3C(=O)Cn3nnc4ccccc43)c3ccccc3)nc2F)CC1` [Compound 594, (2S,4R)-1-[2-(1H-1,2,3-benzotriazol-1-yl)acetyl]-4-fluoro-N-[(S)-[6-fluoro-5-(1-methylcyclopropyl)pyridin-2-yl](phenyl)methyl] pyrrolidine-2-carboxamide], the IC50 is 50 nM in test [1]; 720 nM in test [2] (HeLa, 24 h); greater than 100000 nM in test [3].

With `CC1(c2ccc([C@@H](NC(=O)[C@@H]3C[C@@H](F)CN3C(=O)Cn3cnc4ccccc43)c3ccccc3)nc2F)CC1` [Compound 595, (2S,4R)-1-[2-(1H-1,3-benzodiazol-1-yl)acetyl]-4-fluoro-N-[(S)-[6-fluoro-5-(1-methylcyclopropyl)pyridin-2-yl](phenyl)methyl] pyrrolidine-2-carboxamide], the IC50 in test [1] is 25 nM; in test [2] (HeLa, 24 h) it was 460 nM; in test [3], greater than 100000 nM.

Take `Cn1nc(CC(=O)N2C[C@H](F)C[C@H]2C(=O)N[C@@H](c2ccccc2)c2ccc(C3(C)CC3)c(F)n2)c2ccccc21` [Compound 596, (2S,4R)-4-fluoro-N-[(S)-[6-fluoro-5-(1-methylcyclopropyl)pyridin-2-yl](phenyl)methyl]-1-[2-(1-methyl-1H-indazol-3-yl)acetyl]pyrrolidine-2-carboxamide]: the IC50 in test [1] was 20 nM; in test [2] (HeLa, 24 h) it was 280 nM; in test [3], greater than 96700 nM.

Turning to `CN1C(=O)C(CC(=O)N2C[C@H](F)C[C@H]2C(=O)N[C@@H](c2ccccc2)c2ccc(C3(C)CC3)c(F)n2)c2ccccc21` (stereo partly drawn) [Compound 597, (2S,4R)-4-fluoro-N-[(S)-[6-fluoro-5-(1-methylcyclopropyl)pyridin-2-yl](phenyl)methyl]-1-[2-(1-methyl-2-oxo-2,3-dihydro-1H-indol-3-yl)acetyl]pyrrolidine-2-carboxamide], the IC50 was 64 nM in test [1]; 1320 nM in test [2] (HeLa, 24 h); greater than 100000 nM in test [3].

On to `CC1(c2ccc([C@@H](NC(=O)[C@@H]3C[C@@H](F)CN3C(=O)Cn3c(=O)[nH]c4ccccc43)c3ccccc3)nc2F)CC1` [Compound 599, (2S,4R)-4-fluoro-N-[(S)-[6-fluoro-5-(1-methylcyclopropyl)pyridin-2-yl](phenyl)methyl]-1-[2-(2-oxo-2,3-dihydro-1H-1,3-benzodiazol-1-yl)acetyl]pyrrolidine-2-carboxamide], for which the IC50 in test [1] was 40 nM; in test [2] (HeLa, 24 h), 720 nM; in test [3], greater than 100000 nM.

In the case of `Cn1c(=O)n(CC(=O)N2C[C@H](F)C[C@H]2C(=O)N[C@@H](c2ccccc2)c2ccc(C3(C)CC3)c(F)n2)c2ccccc21` [Compound 600, (2S,4R)-4-fluoro-N-[(S)-[6-fluoro-5-(1-methylcyclopropyl)pyridin-2-yl](phenyl)methyl]-1-[2-(3-methyl-2-oxo-2,3-dihydro-1H-1,3-benzodiazol-1-yl)acetyl]pyrrolidine-2-carboxamide], the IC50 in test [1] is 36 nM; in test [2] (HeLa, 24 h) it was 620 nM; in test [3], greater than 100000 nM.

`Cc1cc([C@@H](NC(=O)[C@@H]2C[C@@H](F)CN2C(=O)Cc2nnc(C(F)F)o2)c2ccccc2)ncc1C(C)C` [Compound 602, (2S,4R)-1-(2-(5-(difluoromethyl)-1,3,4-oxadiazol-2-yl)acetyl)-4-fluoro-N—((S)-(5-isopropyl-4-methylpyridin-2-yl)(phenyl)methyl)pyrrolidine-2-carboxamide]: the IC50 was 92 nM in test [1]; 760 nM in test [2] (HeLa, 24 h); greater than 100000 nM in test [3].

Regarding `CC(C)c1c(F)cc([C@@H](NC(=O)[C@@H]2C[C@@H](F)CN2S(=O)(=O)Cc2cnn[nH]2)c2ccccc2)cc1F` [Compound 659, (2S,4R)-1-(((1H-1,2,3-triazol-5-yl)methyl)sulfonyl)-N—((S)-(3,5-difluoro-4-isopropylphenyl)(phenyl)methyl)-4-fluoropyrrolidine-2-carboxamide], the IC50 in test [1] amounted to 331 nM; in test [2] it was 4350 nM; in test [3] it was 17500 nM.

Turning to `CC(C)c1c(F)cc([C@@H](NC(=O)[C@@H]2C[C@@H](F)CN2C(=O)Cn2cnnn2)c2ccccc2)cc1F` [Compound 669, (2S,4R)-N-[(S)-[3,5-difluoro-4-(propan-2-yl)phenyl](phenyl)methyl]-4-fluoro-1-[2-(1H-1,2,3,4-tetrazol-1-yl)acetyl]pyrrolidine-2-carboxamide], the IC50 was 40 nM in test [1]; 470 nM in test [2] (HeLa, 24 h); greater than 100000 nM in test [3].

As to `Cc1cc([C@@H](NC(=O)[C@@H]2C[C@@H](F)CN2C(=O)Cc2cnn[nH]2)c2ccccc2)ccc1C(C)C` [Compound 670, (2S,4R)-4-fluoro-N-[(S)-[3-methyl-4-(propan-2-yl)phenyl](phenyl)methyl]-1-[2-(1H-1,2,3-triazol-5-yl)acetyl]pyrrolidine-2-carboxamide], the IC50 in test [1] was 71 nM; in test [2] (HeLa, 24 h), 660 nM; in test [3], greater than 100000 nM.

On to `CC(C)c1ccc([C@@H](NC(=O)[C@@H]2C[C@@H](F)CN2C(=O)Cc2cnn[nH]2)c2ccccc2)cc1Cl` [Compound 672, (2S,4R)-N-[(S)-[3-chloro-4-(propan-2-yl)phenyl](phenyl)methyl]-4-fluoro-1-[2-(1H-1,2,3-triazol-5-yl)acetyl]pyrrolidine-2-carboxamide], for which the IC50 in test [1] is 82 nM; in test [2] (HeLa, 24 h), 1220 nM; in test [3], greater than 100000 nM.

For `CC(C)c1ccc([C@@H](NC(=O)[C@@H]2C[C@@H](F)CN2C(=O)Cc2cnn[nH]2)c2ccccc2)cc1C(F)F` [Compound 679, (2S,4R)-N-[(S)-[3-(difluoromethyl)-4-(propan-2-yl)phenyl](phenyl)methyl]-4-fluoro-1-[2-(1H-1,2,3-triazol-5-yl)acetyl]pyrrolidine-2-carboxamide], the IC50 in test [1] is 577 nM; in test [2] (HeLa, 24 h), 8490 nM; in test [3], greater than 100000 nM.

As for `CC1(c2ccc([C@@H](NC(=O)[C@@H]3C[C@@H](F)CN3C(=O)Cc3cnn[nH]3)c3ccccc3)cc2F)CCC1` [Compound 681, (2S,4R)-4-fluoro-N-[(S)-[3-fluoro-4-(1-methylcyclobutyl)phenyl](phenyl)methyl]-1-[2-(1H-1,2,3-triazol-5-yl)acetyl]pyrrolidine-2-carboxamide], the IC50 was 30 nM in test [1]; 430 nM in test [2] (HeLa, 24 h); greater than 100000 nM in test [3].

For `CC(C)(C)c1ccc([C@@H](NC(=O)[C@@H]2C[C@@H](F)CN2C(=O)Cc2cnn[nH]2)c2ccccc2)cc1F` [Compound 685, (2S,4R)-N-[(S)-(4-tert-butyl-3-fluorophenyl)(phenyl)methyl]-4-fluoro-1-[2-(1H-1,2,3-triazol-5-yl)acetyl]pyrrolidine-2-carboxamide], the IC50 is 204 nM in test [1]; 2710 nM in test [2] (HeLa, 24 h); greater than 100000 nM in test [3].

Take `CC(C)c1ccc([C@@H](NC(=O)[C@@H]2C[C@@H](F)CN2C(=O)Cc2cnn[nH]2)c2cccc(-c3ccn[nH]3)c2)nc1F` [Compound 686, (2S,4R)-1-(2-(1H-1,2,3-triazol-5-yl)acetyl)-N—((S)-(3-(1H-pyrazol-5-yl)phenyl)(6-fluoro-5-isopropylpyridin-2-yl)methyl)-4-fluoropyrrolidine-2-carboxamide]: the IC50 was 13 nM in test [1]; 640 nM in test [2] (HeLa, 24 h); greater than 100000 nM in test [3].

Regarding `CC(C)c1ccc([C@@H](NC(=O)[C@@H]2C[C@@H](F)CN2C(=O)Cc2nn(C)c(=O)n2C)c2ccccc2)nc1` [Compound 710, (2S,4R)-1-[2-(1,4-dimethyl-5-oxo-4,5-dihydro-1H-1,2,4-triazol-3-yl)acetyl]-4-fluoro-N-[(S)-phenyl[5-(propan-2-yl)pyridin-2-yl]methyl]pyrrolidine-2-carboxamide], the IC50 in test [1] is 146 nM; in test [2] (HeLa, 24 h), 2340 nM; in test [3], greater than 100000 nM.

For the compound `CC(C)c1ccc([C@@H](NC(=O)[C@@H]2C[C@@H](F)CN2C(=O)Cn2cc(N3CCC3)nn2)c2ccccc2)nc1` [Compound 711, (2S,4R)-1-{2-[4-(azetidin-1-yl)-1H-1,2,3-triazol-1-yl]acetyl}-4-fluoro-N-[(S)-phenyl[5-(propan-2-yl)pyridin-2-yl]methyl]pyrrolidine-2-carboxamide], the IC50 was 30 nM in test [1]; 630 nM in test [2] (HeLa, 24 h); greater than 100000 nM in test [3].

With `Cn1c(CC(=O)N2C[C@H](F)C[C@H]2C(=O)N[C@@H](c2ccccc2)c2ccc(C3CC3)c(F)n2)noc1=O` [Compound 719, (2S,4R)-N-[(S)-(5-cyclopropyl-6-fluoropyridin-2-yl)(phenyl)methyl]-4-fluoro-1-[2-(4-methyl-5-oxo-4,5-dihydro-1,2,4-oxadiazol-3-yl)acetyl]pyrrolidine-2-carboxamide], the IC50 in test [1] is 254 nM; in test [2] (HeLa, 24 h), 2220 nM; in test [3] it was greater than 100000 nM.
